Results published in BindingDB's records for doi:10.1016/j.bmcl.2008.07.045 (Korea Research Institute of Bioscience and Biotechnology, 2008).

Molecular target: Intercellular adhesion molecule 1 (Homo sapiens, UniProt P05362)
Experiment: Inhibition of sICAM1/LFA1 interaction-mediated human THP1 cell adhesion after 1 hr by ELISA

Sequence of Intercellular adhesion molecule 1 (P05362 whole entry): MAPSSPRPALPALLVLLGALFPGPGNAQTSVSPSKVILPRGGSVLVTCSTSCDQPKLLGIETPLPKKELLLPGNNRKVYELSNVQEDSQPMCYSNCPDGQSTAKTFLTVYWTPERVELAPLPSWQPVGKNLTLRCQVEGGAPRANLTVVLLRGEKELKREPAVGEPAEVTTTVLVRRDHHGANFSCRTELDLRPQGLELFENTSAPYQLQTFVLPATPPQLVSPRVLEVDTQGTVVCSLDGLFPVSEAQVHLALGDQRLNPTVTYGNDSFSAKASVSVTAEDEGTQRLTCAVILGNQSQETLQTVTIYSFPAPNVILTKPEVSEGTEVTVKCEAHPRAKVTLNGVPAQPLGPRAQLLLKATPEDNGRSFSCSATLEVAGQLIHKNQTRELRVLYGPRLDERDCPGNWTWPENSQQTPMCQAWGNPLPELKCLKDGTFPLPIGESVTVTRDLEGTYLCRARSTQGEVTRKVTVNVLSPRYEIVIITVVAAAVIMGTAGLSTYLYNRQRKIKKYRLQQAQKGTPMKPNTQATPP

| Structure (SMILES) | IC50 [µM] |
| --- | --- |
| O=C(/C=C/C=C\CC/C=C/c1ccc2c(c1)OCO2)N1CCCCC1 | 32.4 |
| O=C(CCCCCC/C=C/c1ccc2c(c1)OCO2)N1CCCCC1 [PIPERROLEIN B] | 37.8 |
| CCCCC/C=C/C=C/C(=O)NCC(C)C [CHEBI:69686] | 62.6 |

Molecular target: not listed separately
Experiment: Inhibition of sICAM1/LFA1 interaction-mediated human THP1 cell adhesion after 1 hr by ELISA

| Structure (SMILES) | IC50 [µM] |
| --- | --- |
| O=C(/C=C/C=C/CC/C=C/c1ccc2c(c1)OCO2)N1CCCCC1 [Dehydropipernoline] | 17.6 |
| CC(C)CNC(=O)/C=C/CCCC/C=C/c1ccc2c(c1)OCO2 [RETROFRACTAMIDE C] | > 151 |
| CC(C)CNC(=O)/C=C/CCCCCC/C=C/c1ccc2c(c1)OCO2 [PIPERCHABAMIDE D] | 83.9 |
| O=C(/C=C/CCCC/C=C/c1ccc2c(c1)OCO2)N1CCCCC1 [Pipernonaline] | 25.7 |
| CC(C)CNC(=O)/C=C/C=C/CCCCCC/C=C/c1ccc2c(c1)OCO2 [Guineensine] | > 130 |
